# ChEMBL document CHEMBL1153316, “Selectivity profiling of DegP substrates and inhibitors” (Bioorg Med Chem, 2009)
# Peptide text beside a SMILES is read from it.
# Tests used:
# [1] = tested on: Escherichia coli; assay: Inhibition of Escherichia coli degP assessed as specific activity at 0.5 mM; parameters: scale not given: the % may be the effect or the level left
# [2] = Inhibition of elastase assessed as specific activity at 0.5 mM; parameters: scale not given: the % may be the effect or the level left
# [3] = Inhibition of subtilisin assessed as specific activity at 0.5 mM; parameters: scale not given: the % may be the effect or the level left
# [4] = molecular target: Plasminogen (Homo sapiens) (UniProt P00747); assay: Inhibition of plasmin assessed as specific activity at 0.5 mM; parameters: scale not given: the % may be the effect or the level left
# [5] = Inhibition of trypsin assessed as specific activity at 0.5 mM; parameters: scale not given: the % may be the effect or the level left
# [6] = Inhibition of chymotrypsin assessed as specific activity at 0.5 mM; parameters: scale not given: the % may be the effect or the level left
# [7] = molecular target: Prothrombin (Homo sapiens) (UniProt P00734); assay: Inhibition of thrombin assessed as specific activity at 0.5 mM; parameters: scale not given: the % may be the effect or the level left
# [8] = Inhibition of kallikrein assessed as specific activity at 0.5 mM; parameters: scale not given: the % may be the effect or the level left
# [9] = tested on: Escherichia coli; assay: Inhibition of Escherichia coli degP assessed as residual proteolytic activity at 0.5 mM
# [10] = Inhibition of elastase assessed as residual proteolytic activity at 0.5 mM
# [11] = Inhibition of subtilisin assessed as residual proteolytic activity at 0.5 mM
# [12] = molecular target: Plasminogen (Homo sapiens) (UniProt P00747); assay: Inhibition of plasmin assessed as residual proteolytic activity at 0.5 mM
# [13] = Inhibition of trypsin assessed as residual proteolytic activity at 0.5 mM
# [14] = Inhibition of chymotrypsin assessed as residual proteolytic activity at 0.5 mM
# [15] = molecular target: Prothrombin (Homo sapiens) (UniProt P00734); assay: Inhibition of thrombin assessed as residual proteolytic activity at 0.5 mM
# [16] = Inhibition of kallikrein assessed as residual proteolytic activity at 0.5 mM
# Plasminogen (Homo sapiens), sequence (P00747 97-580 limits assumed): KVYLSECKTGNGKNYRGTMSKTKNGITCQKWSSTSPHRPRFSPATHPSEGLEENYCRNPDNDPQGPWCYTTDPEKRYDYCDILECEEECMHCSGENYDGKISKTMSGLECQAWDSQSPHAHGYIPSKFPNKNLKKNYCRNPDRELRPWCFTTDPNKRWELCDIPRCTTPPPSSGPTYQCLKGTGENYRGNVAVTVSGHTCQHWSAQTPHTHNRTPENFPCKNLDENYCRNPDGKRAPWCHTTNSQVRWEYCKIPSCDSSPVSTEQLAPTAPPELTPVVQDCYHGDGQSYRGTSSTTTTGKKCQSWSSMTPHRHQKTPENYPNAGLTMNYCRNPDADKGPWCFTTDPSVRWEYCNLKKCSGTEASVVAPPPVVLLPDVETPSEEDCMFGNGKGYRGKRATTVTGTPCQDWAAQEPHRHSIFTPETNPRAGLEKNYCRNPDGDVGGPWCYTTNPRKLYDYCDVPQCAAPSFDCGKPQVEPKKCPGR
# Plasminogen (Homo sapiens), sequence (P00747 581-810 limits assumed): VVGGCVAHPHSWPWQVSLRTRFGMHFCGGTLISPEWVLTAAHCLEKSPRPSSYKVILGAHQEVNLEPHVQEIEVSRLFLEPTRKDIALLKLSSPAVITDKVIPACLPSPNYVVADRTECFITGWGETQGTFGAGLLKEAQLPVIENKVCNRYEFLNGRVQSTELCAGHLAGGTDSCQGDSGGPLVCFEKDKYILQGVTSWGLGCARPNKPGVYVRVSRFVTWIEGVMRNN
Compound,Activity [1],Activity [2],Activity [3],Activity [4],Activity [5],Activity [6],Activity [7],Activity [8],Activity [9],Activity [10],Activity [11],Activity [12],Activity [13],Activity [14],Activity [15],Activity [16]
CC(C)C[C@H](NC(=O)CN)C(=O)N[C@@H](C)C(=O)N[C@H](C(=O)NCC(=O)N[C@@H](CC(N)=O)C(=O)N[C@H](C(=O)N[C@@H](CO)C(=O)N[C@H](C(=O)N[C@@H](C)C(=O)N[C@@H](CCC(=O)O)C(=O)N[C@@H](CC(C)C)C(=O)N[C@@H](CCC(N)=O)C(=O)N[C@@H](CC(=O)O)C(=O)N[C@@H](C)C(=O)N[C@H](C(=O)N1CCC[C@H]1C(=O)N[C@@H](C)C(=O)Nc1ccc([N+](=O)[O-])cc1)[C@H](C)O)[C@@H](C)O)C(C)C)[C@@H](C)O,< 1%,24%,1520%,< 1%,< 1%,26%,< 1%,< 1%,,,,,,,,
CC(C)[C@H](NC(=O)[C@H](CCC(=O)O)NC(=O)[C@H](Cc1ccc(O)cc1)NC(=O)CNC(=O)[C@H](CO)NC(=O)[C@H](CC(=O)O)NC(=O)[C@H](Cc1cnc[nH]1)NC(=O)[C@H](CCCNC(=N)N)NC(=O)[C@H](Cc1ccccc1)NC(=O)[C@H](CCC(=O)O)NC(=O)[C@H](C)NC(=O)[C@H](CC(=O)O)NC(=O)[C@@H](N)CO)C(=O)Nc1ccc([N+](=O)[O-])cc1,< 1%,8%,2%,< 1%,< 1%,< 1%,< 1%,< 1%,,,,,,,,
CSCC[C@H](NC(=O)[C@H](CCSC)NC(=O)[C@@H]1CCCN1C(=O)[C@H](CC(C)C)NC(=O)[C@@H](NC(=O)[C@H](CC(N)=O)NC(=O)[C@H](Cc1ccccc1)NC(=O)[C@@H](NC(=O)[C@@H]1CCCN1)C(C)C)[C@H](C)O)C(=O)NCC(=O)N[C@@H](CCCCN)C(=O)N[C@@H](C)C(=O)N[C@@H](CO)C(=O)N1CCC[C@H]1C(=O)N[C@H](C(=O)Nc1ccc([N+](=O)[O-])cc1)C(C)C,18%,69%,< 1%,< 1%,1%,3%,< 1%,< 1%,,,,,,,,
N=C(N)NCCC[C@H](NC(=O)c1ccccc1)C(=O)Nc1ccc([N+](=O)[O-])cc1,< 1%,< 1%,< 1%,< 1%,758%,< 1%,3%,24%,,,,,,,,
CC[C@H](C)[C@H](N)C(=O)N[C@@H](Cc1c[nH]c2ccccc12)C(=O)N[C@@H](CC(N)=O)C(=O)N[C@H](C(=O)N[C@@H](CC(C)C)C(=O)N[C@@H](CC(N)=O)C(=O)N[C@@H](CO)C(=O)NCC(=O)N[C@@H](CCCNC(=N)N)C(=O)N[C@H](C(=O)N[C@H](C(=O)N1CCC[C@H]1C(=O)NCC(=O)N[C@H](C(=O)NCC(=O)N[C@@H](Cc1cnc[nH]1)C(=O)N[C@@H](C)C(=O)CCl)[C@@H](C)O)C(C)C)C(C)C)[C@@H](C)O (HELM PEPTIDE1{I.W.N.T.L.N.S.G.R.V.V.P.G.T.G.H.A.[ClC[*:1]]}$$$$V2.0),,,,,,,,,101%,60%,15%,74%,410%,78%,98%,111%
CC(C)C[C@H](NC(=O)CNC(=O)[C@H](C)NC(=O)CNC(=O)[C@@H]1CCCN1C(=O)[C@@H](NC(=O)[C@H](CO)NC(=O)[C@H](C)NC(=O)CNC(=O)[C@@H](N)CCCCN)C(C)C)C(=O)N[C@H](C(=O)Nc1ccc([N+](=O)[O-])cc1)C(C)C (HELM PEPTIDE1{K.G.A.S.V.P.G.A.G.L.V.[O=[N+]([O-])c1ccc(N[*:1])cc1]}$$$$V2.0),< 1%,6%,< 1%,< 1%,< 1%,< 1%,< 1%,< 1%,,,,,,,,
CC(C)[C@H](NC(=O)[C@@H]1CCCN1C(=O)[C@@H](NC(=O)[C@H](C)NC(=O)CNC(=O)[C@H](CO)NC(=O)CNC(=O)[C@H](CO)NC(=O)[C@H](CC(N)=O)NC(=O)[C@H](CCCCN)NC(=O)CNC(=O)[C@@H](N)CCCCN)[C@@H](C)O)C(=O)Nc1ccc([N+](=O)[O-])cc1 (HELM PEPTIDE1{K.G.K.N.S.G.S.G.A.T.P.V.[O=[N+]([O-])c1ccc(N[*:1])cc1]}$$$$V2.0),< 1%,74%,34%,< 1%,< 1%,5%,< 1%,< 1%,,,,,,,,
CSCC[C@H](NC(=O)[C@H](CCSC)NC(=O)[C@@H]1CCCN1)C(=O)NCC(=O)N[C@@H](CCCCN)C(=O)N[C@@H](C)C(=O)N[C@@H](CO)C(=O)N1CCC[C@H]1C(=O)N[C@H](C(=O)CCl)C(C)C (HELM PEPTIDE1{P.M.M.G.K.A.S.P.V.[ClC[*:1]]}$$$$V2.0),,,,,,,,,49%,< 1%,5%,71%,348%,53%,122%,108%
CSCC[C@H](NC(=O)[C@H](CCSC)NC(=O)[C@@H]1CCCN1)C(=O)NCC(=O)N[C@@H](CCCCN)C(=O)N[C@@H](C)C(=O)N[C@@H](CO)C(=O)N1CCC[C@H]1C(=O)N[C@H](C(=O)Nc1ccc([N+](=O)[O-])cc1)C(C)C (HELM PEPTIDE1{P.M.M.G.K.A.S.P.V.[O=[N+]([O-])c1ccc(N[*:1])cc1]}$$$$V2.0),1%,96%,< 1%,4%,< 1%,< 1%,< 1%,< 1%,,,,,,,,
CSCC[C@H](NC(=O)[C@H](CCSC)NC(=O)[C@@H]1CCCN1C(=O)[C@H](CC(C)C)NC(=O)[C@@H](NC(=O)[C@H](CC(N)=O)NC(=O)[C@H](Cc1ccccc1)NC(=O)[C@@H](NC(=O)[C@@H]1CCCN1)C(C)C)[C@@H](C)O)C(=O)NCC(=O)N[C@@H](CCCCN)C(=O)N[C@@H](C)C(=O)N[C@@H](CO)C(=O)N1CCC[C@H]1C(=O)N[C@H](C(=O)CCl)C(C)C (HELM PEPTIDE1{P.V.F.N.T.L.P.M.M.G.K.A.S.P.V.[ClC[*:1]]}$$$$V2.0),,,,,,,,,63%,< 1%,143%,62%,591%,48%,101%,122%
CC(C)[C@H](NC(=O)[C@H](CCCNC(=N)N)NC(=O)CNC(=O)[C@@H](N)CO)C(=O)N[C@H](C(=O)N1CCC[C@H]1C(=O)NCC(=O)N[C@@H](Cc1ccc(O)cc1)C(=O)NCC(=O)N[C@@H](Cc1cnc[nH]1)C(=O)N[C@@H](C)C(=O)CCl)C(C)C (HELM PEPTIDE1{S.G.R.V.V.P.G.Y.G.H.A.[ClC[*:1]]}$$$$V2.0),,,,,,,,,102%,83%,15%,62%,285%,69%,131%,135%
CC(C)[C@H](NC(=O)[C@H](CCCNC(=N)N)NC(=O)CNC(=O)[C@@H](N)CO)C(=O)N[C@H](C(=O)N1CCC[C@H]1C(=O)NCC(=O)N[C@@H](Cc1ccc(O)cc1)C(=O)NCC(=O)N[C@@H](Cc1cnc[nH]1)C(=O)N[C@@H](C)C(=O)Nc1ccc([N+](=O)[O-])cc1)C(C)C (HELM PEPTIDE1{S.G.R.V.V.P.G.Y.G.H.A.[O=[N+]([O-])c1ccc(N[*:1])cc1]}$$$$V2.0),< 1%,56%,2970%,< 1%,< 1%,< 1%,< 1%,< 1%,,,,,,,,
CSCC[C@H](NC(=O)[C@@H]1CCCN1C(=O)[C@@H](N)CO)C(=O)N[C@@H](Cc1ccccc1)C(=O)N[C@@H](CCCCN)C(=O)NCC(=O)N[C@H](C(=O)Nc1ccc([N+](=O)[O-])cc1)C(C)C (HELM PEPTIDE1{S.P.M.F.K.G.V.[O=[N+]([O-])c1ccc(N[*:1])cc1]}$$$$V2.0),18%,7%,3%,< 1%,< 1%,< 1%,< 1%,< 1%,,,,,,,,
CC(C)[C@H](NC(=O)CNC(=O)CNC(=O)[C@H](CC(=O)O)NC(=O)[C@@H](NC(=O)[C@@H](N)CO)[C@@H](C)O)C(=O)Nc1ccc([N+](=O)[O-])cc1 (HELM PEPTIDE1{S.T.D.G.G.V.[O=[N+]([O-])c1ccc(N[*:1])cc1]}$$$$V2.0),< 1%,5%,< 1%,2%,< 1%,< 1%,< 1%,< 1%,,,,,,,,
CSCC[C@H](NC(=O)[C@H](CCSC)NC(=O)[C@@H]1CCCN1C(=O)[C@H](CC(C)C)NC(=O)[C@@H](NC(=O)[C@H](CC(N)=O)NC(=O)[C@H](Cc1ccccc1)NC(=O)[C@@H](N)C(C)C)[C@@H](C)O)C(=O)NCC(=O)N[C@@H](CCCCN)C(=O)N[C@@H](C)C(=O)N[C@@H](CO)C(=O)N1CCC[C@H]1C(=O)N[C@H](C(=O)Nc1ccc([N+](=O)[O-])cc1)C(C)C (HELM PEPTIDE1{V.F.N.T.L.P.M.M.G.K.A.S.P.V.[O=[N+]([O-])c1ccc(N[*:1])cc1]}$$$$V2.0),32%,89%,< 1%,< 1%,< 1%,8%,< 1%,< 1%,,,,,,,,
